What was measured:
[1] = test system: BT474 and HN5 tumor cell lines; assay: Methylene blue growth inhibition assay (cellular Method A); type: cell-based, Human; settings: Homo sapiens, BT-474, 72 h, 3 days, read-out: Activity (Method): growth inhibition IC50 class
Method: Human breast (BT474) and head and neck (HN5) were cultured in low glucose DMEM (Life Technologies 12320-032) containing 10% fetal bovine serum (FBS). Human colon tumor cells (Colo205) were cultured in DMEM (Invitrogen, 10564) containing 10% FBS. The SV40 transformed human mammary epithelial cell line HB4a was transfected with either human H-ras cDNA (HB4a r4.2) or the human c-ErbB2 cDNA (HB4a c5.2). The HB4a clones were cultured in RPMI containing 10% FBS, insulin (5 g/mL), hydrocortisone (5 g/mL), supplemented with the selection agent hygromycin B (50 g/mL). All lines were grown in a humidified incubator at 37° C. in 95% air, 5% CO2. Cells were harvested using trypsin/EDTA, counted using a haemocytometer, and plated in 100 microliters of the appropriate media, at the following densities, in a 96-well tissue culture plate (Falcon 3075): BT474 10,000 cells/well, HN5 3,000 cells/well. The next day, compounds were diluted in DMEM containing […] gentamicin, at twice the final required concentration, from 10 mM stock solutions in DMSO. 100 microliters/well of these dilutions were added to the 100 microliters of media currently on the cell plates. Medium containing 0.6% DMSO was added to control wells. Compounds diluted in DMEM were added to all cell lines. The final concentration of DMSO in all wells was 0.3%. Cells were returned to the incubator (37° C., 10% CO2) for 3 days. Medium was then removed by aspiration. Cell biomass was estimated by staining cells with 90 microliters per well methylene blue (Sigma M9140, 0.5% in 1:1 ethanol:water), and incubation at rt for at least 30 minutes. Stain was removed, and the plates rinsed by immersion in deionized water and air-dried. To release stain from the cells 100 microliters of solubilization solution was added (1% N-lauroyl sarcosine, Sodium salt, Sigma L5125, in PBS), and plates were shaken gently for about 30 minutes. Optical density at 620 nm was measured on a microplate reader. Percent inhibition of cell growth was calculated relative to vehicle treated control wells. Concentration of compound that inhibits 50% of control cell growth (IC50) was interpolated using nonlinear regression (Levenberg-Marquardt) and the equation, y=Vmax*(1−(x/(K+x)))+Y2, where “K” was equal to the IC50. Method B: Celltiter Glo® Growth Inhibition Assays

ErbB2 or EGFR = molecular target: T1, ErbB2 or EGFR; assay: ErbB family substrate phosphorylation enzyme assay (HTRF), Method A or Method B; type: biochemical
T1 construct: enzymes purified from a baculovirus expression system; Reagent production was conducted essentially as described in Brignola, P. S., et al, (2002) J. Biol. Chem. 277(2): 1576-1585
Method: Compounds of the present invention were tested for EGFR, ErbB-2, and ErbB-4 protein tyrosine kinase inhibitory activity in substrate phosphorylation assays using enzymes purified from a baculovirus expression system. Reagent production was conducted essentially as described in Brignola, P. S., et al, (2002) J. Biol. Chem. 277(2): 1576-1585.
The method measures the ability of the isolated enzyme to catalyse the transfer of the gamma-phosphate from ATP onto the tyrosine residue of a biotinylated synthetic peptide referenced “Peptide C” in Brignola, P. S., et al, (2002) J. Biol. Chem. 277(2):1576-1585. The extent of tyrosine phosphorylation was measured using an anti-phosphotyrosine antibody, and quantified by homogenous time-resolved fluorescence (HTRF).
Reactions were performed in black 384-well polystyrene flat-bottom plates in a final volume of 20 ul. Assays were performed by adding 10 μl of each of the following solutions, substrate Mix and enzyme mix: The Substrate mix contained 100 mM 3-[N-morpholino]propanesulfonic acid (MOPS) (pH 7.5), 2 mM MnCl2, 20 μM ATP, 0.01% Tween-20, 0.1 mg/mL (BSA), 0.8 uM peptide substrate, and 1 mM dithiothreitol. The enzyme mix contained 100 mM MOPS (pH7.5); 0.01% Tween-20; 0.1 mg/mL BSA, and either 0.8 nM EGFR, 10 nM ErbB2, or 1 nM ErbB4
During the course of these studies, two separate methods have been used to measure the potency of compounds. In Method A, the substrate mix was added to the compound plates first, then the reaction was started by adding the enzyme mix. In Method B, the enzyme mix was added to the compound plates and the plates were incubated at 20° C. for 1 hour. The reactions were then started by adding the substrate mix.
After initiating the reaction with either method describe above, the reactions were allowed to proceed for 90 minutes at 20° C. The reactions were then terminated by the addition of 20 μl 100 mM EDTA to each well. 40 μl/well of HTRF detection mix were added to the assay plates. The final concentrations of the detection reagents were: 100 mM HEPES (pH7.5), 0.1 mg/mL BSA, 15 nM streptavidin-labeled allophycocyanin (PerkinElmer), and 1 nM europium-labeled anti-phosphotyrosine antibody (PerkinElmer). Assay plates were left unsealed and were counted in a Wallac Multilabel Counter 1420 (PerkinElmer).
Compounds under analysis were dissolved in Me2SO to 1.0 mM and serially diluted 1 to 3 with Me2SO through twelve dilutions. 1 μl of each concentration was transferred to the corresponding well of an assay plate. This creates a final compound concentration range from 0.00027 to 47.6 μM.
The data for dose responses were plotted as % Inhibition calculated with the data reduction formula 100*(1−(U1−C2)/(C1−C2)) versus concentration of compound where U is the unknown value, C1 is the average control value obtained for 4.76% DMSO, and C2 is the average control value obtained for 0.035 M EDTA. Data were fitted with a curve described by: y=((Vmax*x)/(K+x))+Y^2 where Vmax is the upper asymptote, Y2 is the Y intercept, and K is the IC50. The results for each compound were recorded as pIC50s, calculated as follows: pIC50=−Log 10(K)

[2] = Method A: substrate mix added first, reaction started with enzyme mix
[3] = Method B: enzyme mix pre-incubated with compound 1 hour at 20° C., started with substrate mix

Structure (SMILES) | IC50 [1] [nM] | Activity (Method): pIC50 class against ErbB2 or EGFR (ErbB2 or EGFR; [2]) | Activity (Method): pIC50 class against ErbB2 or EGFR (ErbB2 or EGFR; [3])
Cc1cccc(C(=O)Nc2cccc(-c3nn4ccccc4c3-c3ccnc(Nc4ccccc4)n3)c2)c1 [Example 141, 3-Methyl-N-(3-{3-[2-(phenylamino)-4-pyrimidinyl]pyrazolo[1,5-a]pyridin-2-yl}phenyl)benzamide] | 100 to 1000 | ++ (A) (at least one pIC50 measurement greater than 6 against either ErbB2 or EGFR but no measurement greater than pIC50 of 7) | –
N#Cc1cccc(Nc2nccc(-c3c(-c4cccc(NC(=O)c5c(F)cccc5F)c4)nn4ccccc34)n2)c1 [Example 30, N-[3-(3-{2-[(3-cyanophenyl)amino]-4-pyrimidinyl}pyrazolo[1,5-a]pyridin-2-yl)phenyl]-2,6-difluorobenzamide] | < 100 | +++ (A) (at least one pIC50 measurement of greater than 7 against either ErbB2 or EGFR) | –
O=C(Nc1cccc(-c2nn3ccccc3c2-c2ccnc(Nc3cccc(F)c3)n2)c1)c1cccc(F)c1 [Example 17, 3-Fluoro-N-(3-{3-[2-(3-fluoro-phenylamino)-pyrimidin-4-yl]-pyrazolo[1,5-a]pyridin-2-yl}-phenyl)-benzamide] | 100 to 1000 | – | +++ (B) (at least one pIC50 measurement of greater than 7 against either ErbB2 or EGFR)
Cc1cccc2c(-c3ccnc(Nc4cccc(C(F)(F)F)c4)n3)c(-c3cccc(NC(=O)c4c(F)cccc4F)c3)nn12 [Example 155, 2,6-Difluoro-N-{3-[7-methyl-3-(2-{[3-(trifluoro-methyl)phenyl]amino}pyrimidin-4-yl)pyrazolo[1,5-a]pyridin-2-yl]phenyl}benzamide] | 100 to 1000 | ++ (A) (at least one pIC50 measurement greater than 6 against either ErbB2 or EGFR but no measurement greater than pIC50 of 7) | –
O=C(Nc1cccc(-c2nn3ccccc3c2-c2ccnc(Nc3ccon3)n2)c1)c1c(F)cccc1F [Example 85, 2,6-Difluoro-N-(3-{3-[2-(3-isoxazolylamino)-4-pyrimidinyl]pyrazolo[1,5-a]pyridin-2-yl}phenyl)benzamide] | 100 to 1000 | +++ (A) (at least one pIC50 measurement of greater than 7 against either ErbB2 or EGFR) | –
O=C(Nc1cccc(-c2nn3ccccc3c2-c2ccnc(Nc3cccc(F)c3)n2)c1)c1c(F)cccc1Cl [Example 37, 2-Chloro-6-fluoro-N-[3-(3-{2-[(3-fluorophenyl)amino]-4-pyrimidinyl}pyrazolo[1,5-a]pyridin-2-yl)phenyl]benzamide] | < 100 | – | +++ (B) (at least one pIC50 measurement of greater than 7 against either ErbB2 or EGFR)
O=C(c1ccccc1)c1ccc(Nc2nccc(-c3c(-c4cccc(NC(=O)c5c(F)cccc5F)c4)nn4ccccc34)n2)cc1 [Example 98, 2,6-Difluoro-N-{3-[3-(2-{[4-(phenylcarbonyl)phenyl]-amino}-4-pyrimidinyl)pyrazolo[1,5-a]pyridin-2-yl]phenyl}benzamide] | 100 to 1000 | ++ (A) (at least one pIC50 measurement greater than 6 against either ErbB2 or EGFR but no measurement greater than pIC50 of 7) | –
Cn1cccc1C(=O)Nc1cccc(-c2nn3ccccc3c2-c2ccnc(Nc3cccc(F)c3)n2)c1 [Example 82, N-[3-(3-{2-[(3-fluorophenyl)amino]-4-pyrimidinyl}-pyrazolo[1,5-a]pyridin-2-yl)phenyl]-1-methyl-1H-pyrrole-2-carboxamide] | 100 to 1000 | – | +++ (B) (at least one pIC50 measurement of greater than 7 against either ErbB2 or EGFR)
O=C(Nc1cccc(-c2nn3ccccc3c2-c2ccnc(Nc3cccc(F)c3)n2)c1)c1ccc(F)cc1 [Example 15, 4-Fluoro-N-(3-{3-[2-(3-fluoro-phenylamino)-pyrimidin-4-yl]-pyrazolo[1,5-a]pyridin-2-yl}-phenyl)-benzamide] | 100 to 1000 | – | +++ (B) (at least one pIC50 measurement of greater than 7 against either ErbB2 or EGFR)
O=C(Nc1cccc(-c2nn3ccccc3c2-c2ccnc(Nc3cccc(F)c3)n2)c1)c1ccncc1 [Example 75, N-[3-(3-{2-[(3-Fluorophenyl)amino]-4-pyrimidinyl}pyrazolo[1,5-a]pyrindin-2-yl)phenyl]-4-pyridinecarboxamide] | 100 to 1000 | – | +++ (B) (at least one pIC50 measurement of greater than 7 against either ErbB2 or EGFR)
Cc1c(F)cccc1C(=O)Nc1cccc(-c2nn3ccccc3c2-c2ccnc(Nc3cccc(F)c3)n2)c1 [Example 71, 3-Fluoro-N-[3-(3-{2-[(3-fluorophenyl)amino]-4-pyrimidinyl}pyrazolo[1,5-a]pyridin-2-yl)phenyl]-2-methylbenzamide] | 100 to 1000 | – | ++ (B) (at least one pIC50 measurement greater than 6 against either ErbB2 or EGFR but no measurement greater than pIC50 of 7)
O=C(Nc1cccc(-c2nn3ccccc3c2-c2ccnc(Nc3ccc(N4CCCC4)c(F)c3)n2)c1)c1c(F)cccc1F [Example 148, 2,6-Difluoro-N-{3-[3-(2-{[3-fluoro-4-(1-pyrrolidinyl)-phenyl]amino}-4-pyrimidinyl)pyrazolo[1,5-a]pyridin-2-yl]phenyl}benzamide] | < 100 | +++ (A) (at least one pIC50 measurement of greater than 7 against either ErbB2 or EGFR) | –
Cn1cccc1C(=O)Nc1cccc(-c2nn3ccccc3c2-c2ccnc(Nc3ccc4c(c3)OCCO4)n2)c1 [Example 3, 1-Methyl-1H-pyrrole-2-carboxylic acid (3-{3-[2-(2,3-dihydro-benzo[1,4]dioxin-6-ylamino)-pyrimidin-4-yl]-pyrazolo[1,5-a]pyridin-2-yl}-phenyl)-amide] | 100 to 1000 | +++ (A) (at least one pIC50 measurement of greater than 7 against either ErbB2 or EGFR) | –

Source: patent US7812022B2 (GlaxoSmithKline LLC, priority 2004, dated 2010)
